Our source for the IC50 values is patent US20230250096A1, “SUBSTITUTED PHENYL-1H-PYRROLO[2,3-c] PYRIDINE DERIVATIVES” (Janssen Pharmaceutica NV, priority 2021, published 2023).

Bounds are passed on as bounds.

Assay [1] concerns the target T1, menin/MLL (terbium chelate-labeled menin, FITC-MBM1 peptide) (Homo sapiens, UniProt O00255, T541A).
T1 construct: Menin (a.a 1-610-6xhis tag, 2.3 mg/mL in 20 mM Hepes)
T1 sequence (O00255 with tags, fused parts or gaps T541A): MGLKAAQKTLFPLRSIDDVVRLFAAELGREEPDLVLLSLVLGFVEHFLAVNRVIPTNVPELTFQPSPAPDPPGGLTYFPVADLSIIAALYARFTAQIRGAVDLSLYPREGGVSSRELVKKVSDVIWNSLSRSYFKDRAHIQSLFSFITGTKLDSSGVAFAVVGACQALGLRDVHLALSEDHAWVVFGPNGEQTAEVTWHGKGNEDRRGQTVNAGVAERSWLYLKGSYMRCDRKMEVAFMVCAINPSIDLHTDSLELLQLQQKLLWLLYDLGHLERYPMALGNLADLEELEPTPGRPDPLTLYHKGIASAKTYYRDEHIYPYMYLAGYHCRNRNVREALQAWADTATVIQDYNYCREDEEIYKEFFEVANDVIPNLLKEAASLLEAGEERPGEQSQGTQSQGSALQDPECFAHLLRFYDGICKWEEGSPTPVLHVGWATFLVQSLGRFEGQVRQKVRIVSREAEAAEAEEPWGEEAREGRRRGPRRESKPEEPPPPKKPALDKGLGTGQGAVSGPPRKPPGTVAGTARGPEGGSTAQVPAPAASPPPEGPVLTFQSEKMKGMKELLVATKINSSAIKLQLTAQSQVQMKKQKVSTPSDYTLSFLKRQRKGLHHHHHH
The assay is described as follows: Menin/MLL homogenous time-resolved fluorescence (HTRF) assay. It counts as binding. As to conditions: 30 min incubation. An outline of the steps: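 Terbium-labeled menin (a.a. 1-610, His-tagged; […]) pre-incubated 30 min with compound, then 75 nM FITC-MBM1 peptide added for 15 min at ambient temperature in Tris pH 7.5 buffer, 0.5% DMSO. HTRF 520/490 nm ratio read; IC50 from 11-point four-fold titrations, typically from 10 μM.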
In general terms: In TR-FRET formats the signal depends on donor and acceptor labels being close together.

A further assay deals with MEIS1 mRNA expression. As to the kind of experiment: MEIS1 mRNA expression assay (Quantigene Singleplex) in MOLM14 cells. The assay is classed as cell-based, human. As to conditions: 48 hours incubation. An outline of the steps: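 MOLM14 cells, 3,750/well, exposed to increasing compound concentrations for 48 h. MEIS1 mRNA measured by QuantiGene Singleplex branched-DNA hybridization (lysis 45 min, hybridization 18–22 h, both 55 °C), normalized to RPL28. IC50 fitted to background-corrected fold change versus DMSO.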

In general, IC50 refers to the concentration at which inhibition is half-maximal. A lower IC50 goes with inhibition by little substance. For the compound `Cc1cncc2c1c(C[C@@H]1CCN([C@H](CCO)C3CCOCC3)C1)cn2-c1ccc(F)cc1C(=O)N(C)C(C)C` (single isomer, unassigned) [Compound 253a], the IC50 in assay [1] is 1.47 nM; with MEIS1 mRNA expression (Homo sapiens, MOLM-14, 48 h), around 540 nM.
The corresponding values for `Cc1cncc2c1c(CC1CN(C[C@H]3CC[C@H](C(=O)N(C)C)CC3)C1)cn2-c1ccc(F)cc1C(=O)N(C)C(C)C` [Compound 142] are 0.086 nM and 10 nM.
`CC[C@H]([C@H]1C[C@H](N2C[C@H]3CN(C(C)=O)C[C@@H]3C2)C1)N1CC[C@H](Cc2cn(-c3ccc(F)cc3C(=O)N(C)C(C)C)c3cncc(Cl)c23)C1` (single isomer, unassigned) [Compound 27b]: the IC50 was 0.038 nM in assay [1] and 19 nM in the assay on MEIS1 mRNA expression (Homo sapiens, MOLM-14, 48 h).
For `CC(=O)N1CCC(CN2CCC(Cc3cn(-c4ccc(F)cc4S(=O)(=O)C(C)C)c4cncc(C)c34)C2)CC1` (stereo not shown) [Compound 93], in that order: 0.418 nM and around 360 nM.
`CC(=O)N1CC2CC(CN3CC[C@@H](Cc4cn(-c5ccc(F)cc5C(=O)N(CC(C)O)C(C)C)c5cncc(C)c45)C3)CC(C2)C1` (stereo partly shown) [Compound 350]: the IC50 is 0.583 nM in assay [1] and around 1000 nM in the assay on MEIS1 mRNA expression (Homo sapiens, MOLM-14, 48 h).
Take `Cc1cncc2c1c(C[C@@H]1CCN(C(C)C3CCOCC3)C1)cn2-c1ccc(F)cc1C(=O)N(C)C(C)C` (mixture of isomers) [Compound 48]: the IC50 in assay [1] came to 0.06 nM; with MEIS1 mRNA expression (Homo sapiens, MOLM-14, 48 h), 20 nM.
For `CC(=O)N1CCC(CN2CC[C@@H](Cc3cn(-c4ccc(F)cc4C(=O)N4[C@H](C)CC[C@H]4C)c4cncc(C)c34)C2)CC1` [Compound 354], in that order: 0.04 nM and 18 nM.
The corresponding values for `CC(=O)N1CCC(CN2CC[C@H](Cc3cn(-c4ccc(F)cc4[S@]4(=O)=NCCC4)c4cncc(C)c34)C2)CC1` (single isomer, unassigned) [Compound 224b] are 2.77 nM and above 1000 nM.
As for `CC(=O)N1C[C@@H]2CN(CCC[C@@H](C(C)C)N3CC[C@H](Cc4cn(-c5ccc(F)cc5C(=O)N(C)C(C)C)c5cncc(Cl)c45)C3)C[C@H]2C1` (single isomer, unassigned) [Compound 19b], the IC50 worked out at 0.065 nM in assay [1] and 128 nM with MEIS1 mRNA expression (Homo sapiens, MOLM-14, 48 h).
The corresponding values for `CCC([C@H]1C[C@@H](N2C[C@H]3CN(C(C)=O)C[C@@H]3C2)C1)N1CC[C@@H](Cc2cn(-c3ccc(F)cc3C(=O)N(C)C(C)C)c3cncc(C)c23)C1` (mixture of isomers) [Compound 22] are 0.024 nM and around 11 nM.
On to `CCC([C@H]1C[C@@H](N2C[C@H]3CN(C(C)=O)C[C@@H]3C2)C1)N1CC[C@@H](Cc2cn(-c3ccc(F)cc3C(=O)N(C)C(C)C)c3cncc(Cl)c23)C1` (stereo partly shown) [Compound 26b], for which the IC50 in assay [1] was around 0.036 nM; with MEIS1 mRNA expression, 29 nM.
`Cc1cncc2c1c(CC1CN(CC3CCOCC3)C1)cn2-c1ccc(F)cc1C(=O)N1C2COCC1C2` [Compound 263]: the IC50 in assay [1] stood at 0.258 nM; with MEIS1 mRNA expression (Homo sapiens, MOLM-14, 48 h), 175 nM.
`Cc1cncc2c1c(C[C@@H]1CCN([C@H](CCC3OCCO3)C(C)C)C1)cn2-c1ccc(F)cc1C(=O)N(C)C(C)C` (single isomer, unassigned) [Compound 367]: the IC50 in assay [1] was 0.201 nM; in the assay on MEIS1 mRNA expression (Homo sapiens, MOLM-14, 48 h), above 1000 nM.
For `Cc1cncc2c1c(C[C@@H]1CCN(CC3(C)CCN(C(N)=O)CC3)C1)cn2-c1ccc(F)cc1C(=O)N(C)C(C)C` [Compound 217], in that order: 0.039 nM and 21 nM.
On to `Cc1cncc2c1c(CC1CCN(CC3CCC(=O)NC3)CC1)cn2-c1ccc(F)cc1C(=O)N(C)C(C)C` (stereo not shown) [Compound 195], for which the IC50 in assay [1] worked out at 0.153 nM; with MEIS1 mRNA expression (Homo sapiens, MOLM-14, 48 h), 156 nM.
Regarding `CC(=O)N[C@H]1CC[C@H](CN2CCC(Cc3cn(-c4ccc(F)cc4C(=O)N(C)C(C)C)c4cncc(C)c34)C2)CC1` (single isomer, unassigned) [Compound 72], the concentration for half-maximal inhibition (IC50) in assay [1] was 0.173 nM; in the assay on MEIS1 mRNA expression (Homo sapiens, MOLM-14, 48 h), 182 nM.
For `CC(=O)N1CCC(CN2C[C@@H](Cc3cn(-c4ccc(F)cc4C(=O)N(C)C(C)C)c4cncc(C)c34)C[C@H]2C)CC1` [Compound 131], in that order: 0.132 nM and 129 nM.
As for `Cc1cncc2c1c(C[C@H]1CCN(CC3CCCC(=O)N3)C1)cn2-c1ccc(F)cc1C(=O)N(C)C(C)C` (mixture of isomers) [Compound 89], the IC50 is 0.183 nM in assay [1] and around 895 nM with MEIS1 mRNA expression (Homo sapiens, MOLM-14, 48 h).
For `Cc1cncc2c1c(C[C@@H]1CCN(C[C@H]3CCNC(=O)CC3)C1)cn2-c1ccc(F)cc1C(=O)N1CCC2CC21` (single isomer, unassigned) [Compound 351a], in that order: 0.04 nM and 12 nM.
As to `CC(=O)N1CCC(N2CC[C@@H](Cc3cn(-c4ccc(F)cc4C(=O)N(C)C(C)C)c4cncc(C)c34)C2)C(CO)C1` (mixture of isomers) [Compound 248], the IC50 was found to be 0.255 nM in assay [1] and 11 nM in the assay with MEIS1 mRNA expression (Homo sapiens, MOLM-14, 48 h).
For `Cc1cncc2c1c(C[C@@H]1CCN(CC3CCOCC3)C1)cn2-c1ccc(F)cc1[S@](=N)(=O)C(C)C` (single isomer, unassigned) [Compound 78a], in that order: 1.22 nM and around 690 nM.
For the compound `CC(=O)N1CCN(CCC[C@@H](C(C)C)N2CC[C@H](Cc3cn(-c4ccc(F)cc4C(=O)N(C)C(C)C)c4cncc(C)c34)C2)CC1` (single isomer, unassigned) [Compound 9b], the IC50 in assay [1] was 0.975 nM; with MEIS1 mRNA expression (Homo sapiens, MOLM-14, 48 h), 42 nM.
On to `COCCN(C)CCC[C@H](C(C)C)N1CC[C@H](Cc2cn(-c3ccc(F)cc3C(=O)N(C)C(C)C)c3cncc(C)c23)C1` (single isomer, unassigned) [Compound 2a], for which the IC50 in assay [1] worked out at 0.024 nM; with MEIS1 mRNA expression (Homo sapiens, MOLM-14, 48 h), 36 nM.
Turning to `CC(=O)N1C[C@@H]2CN([C@H]3C[C@H]([C@@H](C(C)C)N4CC(Cc5cn(-c6ccc(F)cc6C(=O)N(C)C(C)C)c6cncc(Cl)c56)C4)C3)C[C@H]2C1` (single isomer, unassigned) [Compound 39b], the IC50 turned out to be 0.052 nM in assay [1] and 35 nM in the assay with MEIS1 mRNA expression (Homo sapiens, MOLM-14, 48 h).
On to `CNC(=O)[C@H]1CC[C@@H](CN2CC(Cc3cn(-c4ccc(F)cc4C(=O)N(C)C(C)C)c4cncc(C)c34)C2)CC1` [Compound 241], for which the IC50 in assay [1] turned out to be 0.084 nM; in the assay on MEIS1 mRNA expression (Homo sapiens, MOLM-14, 48 h), 173 nM.
For `CC(=O)N1CCC([C@@H](C)N2CC[C@H](Cc3cn(-c4ccc(F)cc4[S@@](=N)(=O)C(C)C)c4cncc(C)c34)C2)CC1` (single isomer, unassigned) [Compound 233a], in that order: 0.171 nM and 247 nM.
Regarding `CC(=O)N1CCC(N2CC(Cc3cn(-c4ccc(F)cc4C(=O)N(C)C(C)C)c4cncc(C)c34)C2)C[C@@H]1C` (single isomer, unassigned) [Compound 293a], the IC50 in assay [1] stood at 0.459 nM; in the assay with MEIS1 mRNA expression (Homo sapiens, MOLM-14, 48 h), 148 nM.
On to `Cc1cncc2c1c(CC1CN(C[C@H]3CC[C@H](NS(C)(=O)=O)CC3)C1)cn2-c1ccc(F)cc1C(=O)N(C)C(C)C` [Compound 115], for which the IC50 was found to be 0.021 nM in assay [1] and 11 nM with MEIS1 mRNA expression (Homo sapiens, MOLM-14, 48 h).
For `CC(=O)N1CCC(CN2C[C@H](Cc3cn(-c4ccc(F)cc4C(=O)N(C)C(C)C)c4cncc(C)c34)C[C@H]2C)CC1` [Compound 130], in that order: 1.2 nM and 314 nM.
